Read-outs that look alike come from different tables or passages of the source.
Columns and labels:
PI3Kα (p110α/p85α) = PI3Kα (p110α/p85α) (Homo sapiens (Human), UniProt P42336); assay: PI3Kα enzymatic test by measuring the consumption of ATP; format: biochemical
Summary of the method: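 ATP consumption read out by KinaseGlo luminescence after a 90 min reaction of 1.7 μg/ml PI3Kα (p110α/p85α) with 2 μM ATP and 50 μM PIP2, buffered at pH 7.5 (Tris, 10 mM MgCl2, 1 mM EGTA, 0.03% Chaps, 1 mM DTT). Threefold dilution series over ≥10 000-fold range yield IC50.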

U87MG tumour cells = assay: Test of in vitro proliferation of U87MG tumour cells; format: cell-based; settings: U87MG cells, 72 hours, read-out: U87 Cell Proliferation IC50
Protocol: Model 4: Test of in vitro Proliferation of U87MG Tumour Cells.
The cell growth is determined with the reagent CellTiter 96 AQueous One Solution Cell Proliferation Assay from Promega (Cat. No. G3581).

[1] = target: mTOR (human recombinant aa mTOR 1360-2549) (Homo sapiens (Human), UniProt P42345); assay: mTOR enzymatic test by TR-FRET (phosphorylation of GFP-4EBP1); format: biochemical
Chain of mTOR (human recombinant aa mTOR 1360-2549) (P42345 1360-2549): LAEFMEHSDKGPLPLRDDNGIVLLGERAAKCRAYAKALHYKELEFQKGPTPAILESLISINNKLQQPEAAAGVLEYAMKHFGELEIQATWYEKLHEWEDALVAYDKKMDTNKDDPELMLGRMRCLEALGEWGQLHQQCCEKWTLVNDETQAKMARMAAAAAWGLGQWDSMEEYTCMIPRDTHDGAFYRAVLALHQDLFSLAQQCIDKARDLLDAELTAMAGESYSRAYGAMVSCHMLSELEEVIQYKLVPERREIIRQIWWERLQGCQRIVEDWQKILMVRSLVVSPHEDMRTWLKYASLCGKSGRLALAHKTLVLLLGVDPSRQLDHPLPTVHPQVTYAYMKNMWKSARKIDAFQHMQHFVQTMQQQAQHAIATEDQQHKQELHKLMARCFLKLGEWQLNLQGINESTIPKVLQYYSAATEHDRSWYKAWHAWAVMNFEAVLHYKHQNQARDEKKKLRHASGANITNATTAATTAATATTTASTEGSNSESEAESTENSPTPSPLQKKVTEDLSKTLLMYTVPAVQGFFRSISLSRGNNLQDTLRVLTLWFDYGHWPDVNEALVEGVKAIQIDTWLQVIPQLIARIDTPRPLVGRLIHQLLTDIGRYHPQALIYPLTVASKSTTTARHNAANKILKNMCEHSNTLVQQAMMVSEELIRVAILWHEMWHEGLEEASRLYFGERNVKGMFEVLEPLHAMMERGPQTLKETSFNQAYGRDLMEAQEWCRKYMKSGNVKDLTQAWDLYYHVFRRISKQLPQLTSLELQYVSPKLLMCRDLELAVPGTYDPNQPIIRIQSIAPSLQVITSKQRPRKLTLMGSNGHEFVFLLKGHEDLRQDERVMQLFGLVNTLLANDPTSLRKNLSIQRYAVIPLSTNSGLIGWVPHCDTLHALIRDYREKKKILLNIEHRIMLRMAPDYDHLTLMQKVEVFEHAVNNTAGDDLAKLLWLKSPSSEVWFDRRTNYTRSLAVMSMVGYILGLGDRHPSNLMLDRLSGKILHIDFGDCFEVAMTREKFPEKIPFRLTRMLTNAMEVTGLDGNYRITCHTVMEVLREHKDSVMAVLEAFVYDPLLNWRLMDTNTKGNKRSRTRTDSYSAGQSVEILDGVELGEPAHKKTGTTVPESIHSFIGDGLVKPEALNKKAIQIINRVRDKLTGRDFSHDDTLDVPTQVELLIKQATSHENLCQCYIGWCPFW
Summary of the method: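 After a 30 min room-temperature kinase reaction, EDTA (10 mM final) and Tb-labelled phospho-Thr46 antibody (2 nM final) were added and incubated 60 min. Energy transfer from Tb to phosphorylated GFP-4EBP1 was read at 340 nm excitation, emissions 490/520 nm. Values derive from the 520/490 fluorescence ratio.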

[2] = Homo sapiens, U-87 MG, read-out: U87 Akt-pS473 % Inhibition or IC50, nM (IC50), U87MG cells

Chain of PI3Kα (p110α/p85α) (P42336 whole entry): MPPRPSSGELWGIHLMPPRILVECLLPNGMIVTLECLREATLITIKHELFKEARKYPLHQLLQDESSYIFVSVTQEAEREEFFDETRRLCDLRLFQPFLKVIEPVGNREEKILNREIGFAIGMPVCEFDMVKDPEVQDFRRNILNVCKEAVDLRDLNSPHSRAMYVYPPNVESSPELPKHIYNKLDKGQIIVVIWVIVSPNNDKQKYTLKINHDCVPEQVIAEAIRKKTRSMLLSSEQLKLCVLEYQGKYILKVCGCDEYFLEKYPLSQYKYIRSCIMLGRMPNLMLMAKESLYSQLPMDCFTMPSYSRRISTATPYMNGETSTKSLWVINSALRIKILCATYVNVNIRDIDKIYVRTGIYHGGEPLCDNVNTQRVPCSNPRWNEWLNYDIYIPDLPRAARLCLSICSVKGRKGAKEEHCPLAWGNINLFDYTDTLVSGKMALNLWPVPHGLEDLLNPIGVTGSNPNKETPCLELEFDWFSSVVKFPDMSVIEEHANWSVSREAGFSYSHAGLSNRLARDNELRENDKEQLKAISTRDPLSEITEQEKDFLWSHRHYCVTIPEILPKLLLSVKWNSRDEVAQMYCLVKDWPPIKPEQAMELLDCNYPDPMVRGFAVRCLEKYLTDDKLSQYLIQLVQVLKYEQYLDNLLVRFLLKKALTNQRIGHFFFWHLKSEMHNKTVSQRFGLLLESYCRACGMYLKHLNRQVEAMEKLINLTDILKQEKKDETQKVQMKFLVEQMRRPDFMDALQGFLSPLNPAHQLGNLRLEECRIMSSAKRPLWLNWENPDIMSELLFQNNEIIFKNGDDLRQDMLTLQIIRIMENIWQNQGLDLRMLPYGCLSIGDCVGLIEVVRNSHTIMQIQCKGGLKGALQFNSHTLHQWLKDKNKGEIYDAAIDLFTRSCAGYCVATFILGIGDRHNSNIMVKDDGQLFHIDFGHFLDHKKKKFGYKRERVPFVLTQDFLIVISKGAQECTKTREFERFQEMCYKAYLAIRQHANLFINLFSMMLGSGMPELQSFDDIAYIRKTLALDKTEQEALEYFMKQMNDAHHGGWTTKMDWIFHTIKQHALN
Chain of PI3Kα (p110α/p85α) (P27986 whole entry partner): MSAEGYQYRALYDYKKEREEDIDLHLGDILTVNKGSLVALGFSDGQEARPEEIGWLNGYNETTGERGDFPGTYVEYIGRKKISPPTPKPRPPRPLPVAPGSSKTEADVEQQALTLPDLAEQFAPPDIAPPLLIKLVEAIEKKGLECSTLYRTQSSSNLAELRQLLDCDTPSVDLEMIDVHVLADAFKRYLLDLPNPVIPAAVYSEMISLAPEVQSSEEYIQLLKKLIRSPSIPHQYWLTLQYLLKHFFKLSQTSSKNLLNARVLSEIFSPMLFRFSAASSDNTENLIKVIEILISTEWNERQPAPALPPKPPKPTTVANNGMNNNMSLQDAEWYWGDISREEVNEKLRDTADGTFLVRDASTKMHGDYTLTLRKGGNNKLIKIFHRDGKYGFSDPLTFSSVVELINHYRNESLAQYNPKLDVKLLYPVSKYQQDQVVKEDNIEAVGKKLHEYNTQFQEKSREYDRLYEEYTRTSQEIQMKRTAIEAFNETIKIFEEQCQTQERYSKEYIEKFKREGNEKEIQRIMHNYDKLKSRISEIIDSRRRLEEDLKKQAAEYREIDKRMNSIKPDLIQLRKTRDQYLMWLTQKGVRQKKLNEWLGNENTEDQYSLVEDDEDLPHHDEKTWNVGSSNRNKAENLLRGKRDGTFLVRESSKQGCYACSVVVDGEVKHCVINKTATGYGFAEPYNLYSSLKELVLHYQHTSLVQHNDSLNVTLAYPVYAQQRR
Protocol for Akt-pS473 in U87MG cells: Model 3: Cellular Test of Phosphorylation of the Epitope S473 of the Akt Protein on the U87MG Line Via an ELISA Test
An electrochemiluminescence signal is generated by a ruthenium-labelled anti-rabbit antibody.
After culturing for 16-20 hours (the cells are at 100% of confluence) at 37° C. under 5% CO2, 1 μl of the chemical compounds in 100% DMSO (1% DMSO final concentration on the cells) is added. The cells are incubated with the compounds for 3 hours at 37° C. under 5% CO2.
The free sites are blocked with 150 μl/well of a buffer of 50 mM Tris pH 7.5, 0.15 M NaCl, 0.02% Tween 20, 3% BSA with stirring at 450 rpm for 1 hour at room temperature, followed by a step of washing with 3×300 μl of a buffer of 50 mM Tris pH 7.5, 0.15 M NaCl, 0.02% Tween 20.
15 μl of cell lysate are mixed with 15 μl of a 50 mM buffer of Tris pH 7.5, 0.15 M NaCl, 0.02% Tween 20, 1% BSA in a precoated ELISA plate (see above), and incubated for 1 hour at room temperature with stirring, followed by a step of washing with 3×300 μl of a buffer of 50 mM Tris pH 7.5, 0.15 M NaCl, 0.02% Tween 20. The pS473 epitope of Akt is detected with a rabbit polyclonal antibody (Cell Signaling, SC9271), diluted 100-fold in 50 mM Tris pH 7.5, 0.15 M NaCl, 0.02% Tween 20, 1% BSA, 25 μl/well (incubation for 1 hour at room temperature with stirring at 450 rpm).
After washing (see above), revelation is performed with a ruthenium-labelled anti-rabbit antibody (MSD R32AB1), diluted 3000-fold in a 50 mM buffer of Tris pH 7.5, 0.15 M NaCl, 0.02% Tween 20, 1% BSA, 25 μl/well, followed by incubation for 1 hour at room temperature with stirring at 450 rpm, and the plates are covered with aluminium.
After a further washing step, the plates are emptied and 150 μl of MSD Read Buffer T diluted fourfold with water are added. The electrochemiluminescence is measured on the MSD Sector Imager 6000.

Question: Which “PI3Ka IC50” value (PI3Kα (p110α/p85α)) does the source give for `CCN1CC(C)(C)Oc2nc(N3CC4CCC(C3)O4)nc(-c3ccc(NC(=O)Nc4cc(C)nc(C)c4)c(F)c3)c2C1=O` [Example 58, 1-(2,6-Dimethylpyridin-4-yl)-3-{4-[6-ethyl-8,8-dimethyl-2-(8-oxa-3-azabicyclo[3.2.1]oct-3-yl)-5-oxo-5,6,7,8-tetrahydro-9-oxa-1,3,6-triazabenzocyclohepten-4-yl]-2-fluorophenyl}urea] here?
Answer: 9470 nM

Question: What about the IC50 (Akt-pS473 in U87MG cells; [2]) of the same compound?
Answer: 20 nM

Question: And the IC50 (U87MG tumour cells; Homo sapiens, U-87 MG, 72 h)?
Answer: 71 nM

Question: And the IC50 [1]?
Answer: 28 nM

Question: `CCNC(=O)Nc1ccc(-c2nc(N3CCOC[C@@H]3CC)nc3c2C(=O)N(CC)CC(C)(C)O3)cc1F` [Example 151, 1-Ethyl-3-{4-[6-ethyl-2-((S)-3-ethylmorpholin-4-yl)-8,8-dimethyl-5-oxo-5,6,7,8-tetrahydro-9-oxa-1,3,6-triazabenzocyclohepten-4-yl]-2-fluorophenyl}urea] was tested. Which “PI3Ka IC50” value (PI3Kα (p110α/p85α)) did it give?
Answer: >10000 nM

Question: What about the IC50 (Akt-pS473 in U87MG cells; [2]) of the same compound?
Answer: 82 nM

Question: And the IC50 (U87MG tumour cells; Homo sapiens, U-87 MG, 72 h)?
Answer: 531 nM

Question: And the IC50 [1]?
Answer: 116 nM

Question: With `CCN1CC(C)(C)Oc2nc(N3CC4CCC(C3)O4)nc(-c3ccc(NC(=O)Nc4ccc(OC)nc4)c(F)c3)c2C1=O` [Example 240, 1-{4-[6-Ethyl-8,8-dimethyl-2-(8-oxa-3-azabicyclo[3.2.1]oct-3-yl)-5-oxo-5,6,7,8-tetrahydro-9-oxa-1,3,6-triazabenzocyclohepten-4-yl]-2-fluorophenyl}-3-(6-methoxypyridin-3-yl)urea] as the compound, how does the “PI3Ka IC50” value (PI3Kα (p110α/p85α)) read?
Answer: >10000 nM

Question: And the IC50 (Akt-pS473 in U87MG cells; read-out: U87 Akt-pS473 % Inhibition or IC50, nM (IC50), U87MG cells)?
Answer: 29 nM

Question: What about the IC50 (U87MG tumour cells) of the same compound?
Answer: 75 nM

Question: What about the IC50 [1] of the same compound?
Answer: 61 nM

Question: How did the “PI3Ka IC50” value (PI3Kα (p110α/p85α)) turn out when `Cc1cc(NC(=O)Nc2ccc(-c3nc(N4C5CCC4COC5)nc4c3C(=O)N(C)CC(C)(C)O4)cc2F)ccn1` [Example 59, 1-{2-Fluoro-4-[6,8,8-trimethyl-2-(3-oxa-8-azabicyclo[3.2.1]oct-8-yl)-5-oxo-5,6,7,8-tetrahydro-9-oxa-1,3,6-triazabenzocyclohepten-4-yl]phenyl}-3-(2-methylpyridin-4-yl)urea] was run?
Answer: 4200 nM

Question: And the IC50 (Akt-pS473 in U87MG cells; [2])?
Answer: 36 nM

Question: What about the IC50 (U87MG tumour cells; Homo sapiens, U-87 MG, 72 h) of the same compound?
Answer: 42 nM

Question: What about the IC50 [1] of the same compound?
Answer: 67 nM

Question: How did the “PI3Ka IC50” value (PI3Kα (p110α/p85α)) turn out when `CCN1CC(C)(C)Oc2nc(N3C4CCC3COC4)nc(-c3ccc(NC(=O)Nc4ccc(C)nc4)c(F)c3)c2C1=O` [Example 229, 1-{4-[6-Ethyl-8,8-dimethyl-2-(3-oxa-8-azabicyclo[3.2.1]oct-8-yl)-5-oxo-5,6,7,8-tetrahydro-9-oxa-1,3,6-triazabenzocyclohepten-4-yl]-2-fluorophenyl}-3-(6-methylpyridin-3-yl)urea] was run?
Answer: >10000 nM

Question: What about the IC50 (Akt-pS473 in U87MG cells; [2]) of the same compound?
Answer: 19 nM

Question: What about the IC50 (U87MG tumour cells; Homo sapiens, U-87 MG, 72 h) of the same compound?
Answer: 86 nM

Question: And the IC50 [1]?
Answer: 43 nM

Question: How did the “PI3Ka IC50” value (PI3Kα (p110α/p85α)) turn out when `CCN1CC(C)(C)Oc2nc(N3CC4CCC(C3)O4)nc(-c3ccc(NC(=O)Nc4ccc(N5CCN(S(C)(=O)=O)CC5)cc4)c(F)c3)c2C1=O` [Example 235, 1-{4-[6-Ethyl-8,8-dimethyl-2-(8-oxa-3-azabicyclo[3.2.1]oct-3-yl)-5-oxo-5,6,7,8-tetrahydro-9-oxa-1,3,6-triazabenzocyclohepten-4-yl]-2-fluorophenyl}-3-[4-(4-methanesulfonylpiperazin-1-yl)phenyl]urea] was run?
Answer: >7200 nM

Question: What about the IC50 (Akt-pS473 in U87MG cells; [2]) of the same compound?
Answer: 10 nM

Question: And the IC50 (U87MG tumour cells; Homo sapiens, U-87 MG, 72 h)?
Answer: 29 nM

Question: What about the IC50 [1] of the same compound?
Answer: 89 nM

Question: Which results are given for `CN1CC(C)(C)Oc2nc(N3C4CCC3COC4)nc(-c3ccc(NC(=O)Nc4ccncc4)c(F)c3)c2C1=O` [Example 82, 1-{2-Fluoro-4-[6,8,8-trimethyl-2-(3-oxa-8-azabicyclo[3.2.1]oct-8-yl)-5-oxo-5,6,7,8-tetrahydro-9-oxa-1,3,6-triazabenzocyclohepten-4-yl]phenyl}-3-pyridin-4-ylurea]?
Answer: PI3Ka IC50 (PI3Kα (p110α/p85α)): 2240 nM; IC50 (Akt-pS473 in U87MG cells; [2]): 13 nM; IC50 (U87MG tumour cells; Homo sapiens, U-87 MG, 72 h): 29 nM; IC50 [1]: 21 nM

Question: What does the source list for `CC[C@H]1COCCN1c1ccc(NC(=O)Nc2ccc(-c3nc(N4CCOC[C@@H]4C)nc4c3C(=O)N(CC)CC(C)(C)O4)cc2F)cn1` [Example 248, 1-{4-[6-Ethyl-8,8-dimethyl-2-((S)-3-methylmorpholin-4-yl)-5-oxo-5,6,7,8-tetrahydro-9-oxa-1,3,6-triazabenzocyclohepten-4-yl]-2-fluorophenyl}-3-[6-((S)-3-ethylmorpholin-4-yl)pyridin-3-yl]urea]?
Answer: PI3Ka IC50 (PI3Kα (p110α/p85α)): >10000 nM; IC50 (Akt-pS473 in U87MG cells; [2]): 29 nM; IC50 (U87MG tumour cells; Homo sapiens, U-87 MG, 72 h): 96 nM; IC50 [1]: 68 nM

Question: For `CN1CC(C)(C)Oc2nc(N3C4CCC3COC4)nc(-c3ccc(NC(=O)Nc4ccncc4)cc3)c2C1=O` [Example 68, 1-Pyridin-4-yl-3-{4-[6,8,8-trimethyl-2-(3-oxa-8-azabicyclo[3.2.1]oct-8-yl)-5-oxo-5,6,7,8-tetrahydro-9-oxa-1,3,6-triazabenzocyclohepten-4-yl]phenyl}urea], which “PI3Ka IC50” value (PI3Kα (p110α/p85α)) is on record?
Answer: 1360 nM

Question: And the IC50 (Akt-pS473 in U87MG cells; [2])?
Answer: 16 nM

Question: And the IC50 (U87MG tumour cells; Homo sapiens, U-87 MG, 72 h)?
Answer: 82 nM

Question: And the IC50 [1]?
Answer: 12 nM

Question: Which results are given for `COCCN1CC(C)(C)Oc2nc(N3CC4CCC(C3)O4)nc(-c3ccc(NC(=O)Nc4ccc(OC)nc4)cc3)c2C1=O` [Example 197, 1-{4-[6-(2-Methoxyethyl)-8,8-dimethyl-2-(8-oxa-3-azabicyclo[3.2.1]oct-3-yl)-5-oxo-5,6,7,8-tetrahydro-9-oxa-1,3,6-triazabenzocyclohepten-4-yl]phenyl}-3-(6-methoxypyridin-3-yl)urea]?
Answer: PI3Ka IC50 (PI3Kα (p110α/p85α)): >10000 nM; IC50 (Akt-pS473 in U87MG cells; [2]): 150 nM; IC50 (U87MG tumour cells; Homo sapiens, U-87 MG, 72 h): 523 nM; IC50 [1]: 117 nM

Question: For `Cn1ccc(NC(=O)Nc2ccc(-c3nc(N4CC5CCC(C4)O5)nc4c3C(=O)N(C3CCOCC3)CC(C)(C)O4)cc2)n1` [Example 16, 1-{4-[8,8-dimethyl-2-(8-oxa-3-azabicyclo[3.2.1]oct-3-yl)-5-oxo-6-(tetrahydropyran-4-yl)-5,6,7,8-tetrahydro-9-oxa-1,3,6-triazabenzocyclohepten-4-yl]phenyl}-3-(1-methyl-1H-pyrazol-3-yl)urea], which “PI3Ka IC50” value (PI3Kα (p110α/p85α)) is on record?
Answer: >10000 nM

Question: What about the IC50 (Akt-pS473 in U87MG cells; [2]) of the same compound?
Answer: 269 nM

Question: What about the IC50 (U87MG tumour cells; Homo sapiens, U-87 MG, 72 h) of the same compound?
Answer: 527 nM

Question: And the IC50 [1]?
Answer: 19 nM

Question: What does the source list for `CCN1CC(C)(C)Oc2nc(N3CCOC[C@@H]3C)nc(-c3ccc(NC(=O)OCC(C)(C)O)cc3)c2C1=O` [Example 214, {4-[6-Ethyl-8,8-dimethyl-2-((S)-3-methylmorpholin-4-yl)-5-oxo-5,6,7,8-tetrahydro-9-oxa-1,3,6-triazabenzocyclohepten-4-yl]phenyl}carbamic acid 2-hydroxy-2-methylpropyl ester]?
Answer: PI3Ka IC50 (PI3Kα (p110α/p85α)): >10000 nM; IC50 (Akt-pS473 in U87MG cells; [2]): > 1000 nM; IC50 (U87MG tumour cells; Homo sapiens, U-87 MG, 72 h): > 10000 nM; IC50 [1]: 2450 nM

Question: How did the “PI3Ka IC50” value (PI3Kα (p110α/p85α)) turn out when `CCN1CC(C)(C)Oc2nc(N3CCOC[C@@H]3C)nc(-c3ccc(NC(=O)Nc4ccc(OC)cn4)c(F)c3)c2C1=O` [Example 163, 1-{4-[6-Ethyl-8,8-dimethyl-2-((S)-3-methylmorpholin-4-yl)-5-oxo-5,6,7,8-tetrahydro-9-oxa-1,3,6-triazabenzocyclohepten-4-yl]-2-fluorophenyl}-3-(5-methoxypyridin-2-yl)urea] was run?
Answer: 3870 nM

Question: And the IC50 (Akt-pS473 in U87MG cells; [2])?
Answer: 130 nM

Question: What about the IC50 (U87MG tumour cells; Homo sapiens, U-87 MG, 72 h) of the same compound?
Answer: 1020 nM

Question: And the IC50 [1]?
Answer: 55 nM

Question: Which “PI3Ka IC50” value (PI3Kα (p110α/p85α)) does the source give for `COCCN1CC(C)(C)Oc2nc(N3CC4CCC(C3)O4)nc(-c3ccc(NC(=O)Nc4ccc(F)cc4F)cc3)c2C1=O` [Example 162, 1-(2,4-Difluorophenyl)-3-{4-[6-(2-methoxyethyl)-8,8-dimethyl-2-(8-oxa-3-azabicyclo[3.2.1]oct-3-yl)-5-oxo-5,6,7,8-tetrahydro-9-oxa-1,3,6-triazabenzocyclohepten-4-yl]phenyl}urea] here?
Answer: >10000 nM

Question: What about the IC50 (Akt-pS473 in U87MG cells; [2]) of the same compound?
Answer: 110 nM

Question: And the IC50 (U87MG tumour cells; Homo sapiens, U-87 MG, 72 h)?
Answer: 486 nM

Question: And the IC50 [1]?
Answer: 147 nM

— patent US9120812B2, “Pyrimidooxazocine derivatives as mTOR-inhibitors” (SANOFI, priority 2012, dated 2015)
